For ten molecules, EC50, CC50 and T. brucei eliminated results are on record in PMC9785441, “A Broad Spectrum Antiparasitic Activity of Organotin (IV) Derivatives and Its Untargeted Proteomic Profiling Using Leishmania donovani” (Pathogens, 2022).

The structures appear in SMILES notation.

In data set [1] the test system is N. fowleri (KUL strain) trophozoites. Kind of data set: N. fowleri trophozoite viability assay (CellTiter-Glo). It counts as cell-based, Naegleria fowleri. To be noted: 48 h. How it is done: N. fowleri (KUL strain) was cultured in Nelson’s medium supplemented with 10% FBS and kept at 37 °C. For all experiments, trophozoites were harvested during the logarithmic phase of growth. Test compounds were serially diluted and transferred to a white solid bottomed 96-well tissue culture plate (E&K Scientific, Swedesboro, NJ, USA) followed by addition of 10,000 N. fowleri trophozoites in Nelson’s medium in a final volume of 100 µL and a final concentration of compounds ranging from 50 to 0.39 µM. Amphotericin B was used as positive control and assay plates were incubated for 48 h at 37 °C. Parasite viability was measured as described for E. histolytica and G. lamblia. EC50 values were obtained using the GraphPad Prism 9 Software.
On the technique in general: Cellular ATP, detected with luciferase, serves as a proxy for viable cell number.

The subject of data set [2] is T. b. brucei Lister 427 bloodstream forms. Nature of the data set: T. brucei bloodstream form viability assay (SYBR Green). The note with it: for EC50: bloodstream forms, 72 h. It counts as cell-based, Trypanosoma brucei. How it is done: Bloodstream forms of T. b. brucei Lister 427 were cultured in complete HMI-9 medium in T25 suspension culture flasks (Thermo Scientific, Cat. 12-566-84) and maintained at 37 °C and 5% CO2. Trypanosomes were kept in log-phase growth and passaged every 48 h. […] Pentamidine were used as a positive control for T. brucei assay. Compounds were diluted with fresh HMI-9 medium (99 µL/well). Parasites in log-phase were suspended at 2 × 10^5 parasites/mL in HMI-9 medium and then added to each well (100 µL) to give 2 × 10^4 trypanosomes/well. Assay plates were incubated at 37 °C and 5% CO2 for 72 h. Parasite lysate was obtained by addition of 50 µL/well of lysis solution (0.012% saponin, 0.12% Triton X-100, 7.5 mM ETDA, 30 mM Tris, pH 7.5) containing 0.3 µL/mL SYBR Green I (10,000× in DMSO; Invitrogen, Carlsbad, CA, USA). Assay plates were incubated in the dark for 1 h at room temperature. Fluorescence was measured at 485 nm excitation and 535 nm emission wavelengths using an EnVision multilabel plate reader (PerkinElmer, Waltham, MA, USA). In each assay plate, parasite viability was normalized relative to positive (pentamidine) and negative (0.5% DMSO) controls in each assay plate. Assays were performed in biological and technical duplicates, and dose–response and EC50 data were generated with GraphPad Prism 9 using a sigmoidal four parameter logistic curve.

Data set [3] deals with G. lamblia (WB strain) trophozoites. Kind of data set: G. lamblia trophozoite viability assay (CellTiter-Glo). It counts as cell-based, Giardia lamblia. To be noted: 48 h. How it is done:
Trophozoites of G. lamblia (WB strain) were maintained in vitro as described in TYI-S-33 medium supplemented with penicillin (100 U/mL) and streptomycin (100 µg/mL). Cells were harvested during the logarithmic phase of the growth for antiparasitic assessment. Test compounds were serially diluted and transferred to a white solid bottomed 96-well tissue culture plate (E&K Scientific, Swedesboro, NJ, USA) followed by addition of 5000 G. lamblia trophozoites for a final volume of 100 µL of TYI-S-33 medium and a final concentration of compounds ranging from 50.0 to 0.39 µM. Metronidazole was used as a positive control and assay plates were incubated for 48 h at 37 °C in the GasPak EZ Anaerobic Gas Generating Pouch System (VWR). Parasite viability was measured in triplicate using the CellTiter-Glo luminescence kit in an Envision plate reader. EC50 values were obtained using the GraphPad Prism 9 Software.

The subject of data set [4] is C2C12 cells. Nature of the data set: Cytotoxicity to C2C12 host cells. It counts as cell-based. The note with it: mouse myoblast host cells, 72 h. The procedure: Mouse C2C12 myoblasts (ATCC CRL-1772) were cultivated in RPMI 1640 medium supplemented with 5% FBS and kept at 37 °C and 5% CO2. T. cruzi CAI-72 trypomastigotes were obtained from the supernatant of C2C12 cells infected four to seven days previously. For the assay, 500 C2C12 cells were mixed with 7500 T. cruzi parasites and seeded into 384-well plates at a 50 µL final volume. Test compounds and reference drugs (Benznidazole and K11777) were pre-spotted into the 384 well black bottom plates prior to the addition of cells and parasites with final assay concentration of 20 µM to 0.02 µM. The plates were incubated at 37 °C^, 5% CO2 for 72 h. Cultures were then fixed with 4% formaldehyde and 0.5 µg/mL DAPI (diamidino-2-phenylindole) was added for staining nucleic acids. Plates were kept protected from light for 1 h and then imaged in an ImageXpress Micro XLS automated high content imager (Molecular Devices, San Jose, CA, USA). Imaging and data analysis were performed as described for L. donovani amastigotes on biological triplicates.

Data set [5] concerns HEK-293T cells. Kind of data set: HEK293 cytotoxicity assay (resazurin). It counts as cell-based. The note with it: human embryonic kidney cells, 48 h, max 4 µM; read-out: CC50 HEK923. How it is done:
HEK-293T cells were cultured in DMEM (Gibco) supplemented with 10% heat inactivated FBS (Corning) and 1% penicillin-streptomycin (Gibco). Cells were maintained in vented T75 cell culture flasks (Thermo Scientific, Cat. 12-565-349) at 37 °C and 5% CO2, and were passaged every 72 h. […] Compounds were diluted with fresh DMEM (49 µL/well). HEK-293 cells were suspended at 4 × 10^5 cells/mL in DMEM and added to each well (50 µL/well) to give 2 × 10^4 cells/well. Assay plates were incubated at 37 °C and 5% CO2 for 48 h, followed by addition of 20 µL of 0.5 mM resazurin (Alfa Aesar, Cat. B21187) in PBS to each well. […] In each assay plate, cell viability was normalized relative to positive and negative controls. Assays were performed in biological and technical duplicates, and dose–response and CC50 data were generated with GraphPad Prism 5 using a sigmoidal four parameter logistic curve.
(Alamar Blue is a resazurin reagent that responds to reducing activity.)

Data set [6] deals with B10R cells. Nature of the data set: Cytotoxicity to B10R host cells (nuclei count in the amastigote assay). The note with it: mouse monocyte host cells, 72 h. It counts as cell-based. How it is done:
For the intracellular amastigote stage assay, L. donovani was incubated at a density of 1 × 10^6 parasites/mL for six days at 29 °C before infection to enrich the proportion of metacyclic promastigotes. B10R monocyte cell lines were cultured in RPMI supplemented with 10% FBS and 1%penicillin/streptomycin at 37 °C in 5% CO2. After 72 h, cells were counted with a hemocytometer and mixed with the six-day-old parasites. […] Plates were incubated at 37 °C and 5% CO2 for 72 h. Cultures were then fixed with 4% formaldehyde solution for 30 min and stained with 0.5 µg/mL DAPI (diamidino-2-phenylindole). Plates were then imaged using an ImageXpress Micro XLS automated high content imager (Molecular Devices, San Jose, CA, USA) using a 10× air objective. A custom image analysis module generated in ImageXpress was used to count the nuclei of host and parasite cells. EC50 values were obtained using the GraphPad Prism 9 Software with biological triplicates.

One may read the EC50 as the midpoint of the concentration-response curve. Low readings indicate an effect from little substance, high ones a need for much substance. The term CC50 denotes the concentration giving 50% cytotoxicity. As for `COc1ccc(NC(=O)CCC(=O)O)cc1` [MS26, 4-(4-methoxyphenylamino)-4 oxobutanoic acid], the results for the EC50 in data set [1] (Naegleria fowleri), in data set [2] (Trypanosoma brucei) and in data set [3] (Giardia duodenalis) were > 10000 nM, > 4000 nM and > 10000 nM, respectively. Also, the CC50 in data set [4] is > 20000 nM.

`CCC[CH2][Sn]([CH2]CCC)([O]C(=O)CCC(=O)Nc1ccc(OC)cc1)[O]C(=O)CCC(=O)Nc1ccc(OC)cc1` [MS26Bu2]: the CC50 was 370 nM in data set [5], 140 nM in data set [4] and 1060 nM in data set [6]. For the same molecule, the values for the EC50 in data set [1], in data set [2] and in data set [3] were > 10000 nM, 290 nM and > 10000 nM, respectively.

Turning to `CCC[CH2][Sn]([CH2]CCC)([CH2]CCC)[O]C(=O)CCC(=O)Nc1ccc(OC)cc1` [MS26Bu3], the CC50 in data set [5] amounted to 140 nM; in data set [4], 220 nM; in data set [6], 170 nM. Moreover, the 50% effective concentration (EC50) in data set [1] was found to be 1500 nM; in data set [2], 50 nM; in data set [3] it was 1030 nM.

Take `CCC[CH2][Sn]([Cl])([Cl])[O]C(=O)CCC(=O)Nc1ccc(OC)cc1` [MS26BuSnCl2]: the CC50 was > 4000 nM in data set [5], 18100 nM in data set [4] and 620 nM in data set [6]. Further, the values for the EC50 in data set [1], in data set [2] and in data set [3] were > 10000 nM, > 4000 nM and > 10000 nM, respectively.

As for `COc1ccc(NC(=O)CCC(=O)[O][Sn]([CH]2CCCCC2)([CH]2CCCCC2)[CH]2CCCCC2)cc1` [MS26Cy3], the CC50 in data set [5] and in data set [6] was 110 nM each time. Besides, the EC50 in data set [1] was 7500 nM; in data set [2] it was 80 nM; in data set [3], > 10000 nM.

Regarding `C[CH2][Sn]([CH2]C)([CH2]C)[O]C(=O)CCC(=O)Nc1ccc(OC)cc1` [MS26Et3], the EC50 in data set [1] came out at 1400 nM; in data set [2] it was 90 nM; in data set [3], 8000 nM. The T. brucei eliminated in data set [2] (5 µM) was > 99%. The molecule further came in with a CC50 in data set [4] of 2790 nM.

For the molecule `COc1ccc(NC(=O)CCC(=O)[O][Sn]([CH3])([CH3])[CH3])cc1` [MS26Me3], the CC50 in data set [5] is 1240 nM; in data set [4] it was 9410 nM; in data set [6] it was 4870 nM. Also, the 50% effective concentration (EC50) in data set [1] was > 10000 nM; in data set [2] it was > 4000 nM; in data set [3], > 10000 nM.

Consider `COc1ccc(NC(=O)CCC(=O)[O-])cc1.[Na+]` [MS26Na, sodium 4-(4-methoxyphenylamino)-4 oxobutanoate], for which the figures for the CC50 in data set [5], in data set [4] and in data set [6] were > 4000 nM, 1610 nM and 4550 nM, respectively. The EC50 is > 10000 nM in data set [1], > 4000 nM in data set [2] and > 10000 nM in data set [3].

`COc1ccc(NC(=O)CCC(=O)[O][Sn]([c]2ccccc2)([c]2ccccc2)[c]2ccccc2)cc1` [MS26Ph3]: the CC50 is 360 nM in data set [5], 410 nM in data set [4] and 290 nM in data set [6]. Further, the results for the half-maximal effective concentration (EC50) in data set [1], in data set [2] and in data set [3] were 3200 nM, 90 nM and 5300 nM, respectively.

With `C=[CH][Sn]([CH]=C)([O]C(=O)CCC(=O)Nc1ccc(OC)cc1)[O]C(=O)CCC(=O)Nc1ccc(OC)cc1` [MS26vin2], the 50% cytotoxic concentration (CC50) was > 4000 nM in data set [5], > 20000 nM in data set [4] and > 20000 nM in data set [6]. The concentration giving a half-maximal response (EC50) in data set [1] is > 10000 nM; in data set [2], > 4000 nM; in data set [3] it was > 10000 nM.
